In patent US20150376216A1, “SUGAR-ANALOG PHOSPHORUS-CONTAINING HETEROCYCLES HAVING AN ANTI-METASTATIC ACTIVITY” (CENTRE NATIONAL DE LA RECHERCHE SCIENTIRIQUE, priority 2013, published 2015):
Read-outs that look alike come from different tables or passages of the source.

Legend:
[1] = tested on: DU145; test: MTT antiproliferative test, DU145; format: cell-based; settings: Homo sapiens, DU-145, read-out: IC50, inhibition of proliferation
Procedure: (§1) The lines MDAMB-435 and A431 are seeded at a density of 3000 cells per well in 96-well plates. After 24 hours, compounds 4.2a and 5.6d resuspended in 100% DMSO are added at concentrations of 0-0.001-0.010-0.1-1-10-50 μM for a final constant amount of DMSO of 0.3%. The cultures are maintained for a further 72 hours and an MTT colorimetric test is then performed. 100 μl of a solution of MTT at 5 mg/ml in PBS are added to the culture medium, which is left to incubate for 3 hours. The culture medium is removed and the cells are lyzed by adding 100 μL of a 4 mM HCl solvent, 0.1% Nondet P-40 (NP40) in isopropanol. The yellow tetrazolium MTT salt (3-(4,5-dimethylthiazol-2-yl)-2,5-diphenyl tetrazolium bromide), when it is reduced by the mitochondrial succinate dehydrogenase of active live cells, forms a blue-violet formazan product. The medium then changes from yellow to blue-violet. The intensity of this coloration at 590 nm is proportional to the number of live cells present during the test and gives an indication of the metabolic activity of these cells.
(§2) Table 1 gives the concentration values for 50% inhibition of proliferation (IC50) for compounds 4.2a and 5.6d on lines derived from bowel cancer (CaCo2), skin cancer (A431, MDAMB-435, B16F10), breast cancer (MDAMB-431), […] (HuH7), prostate cancer (DU145) and brain cancer (SNB75, Gli4, Gli7).

[2] = tested on: CaCo2; test: MTT antiproliferative test, CaCo2; format: cell-based; settings: Homo sapiens, Caco-2, read-out: IC50, inhibition of proliferation
Procedure: as §1, §2

[3] = tested on: C6 glioblastoma line; test: MTT antiproliferative test, C6; format: cell-based; settings: Rattus norvegicus, read-out: IC50, inhibition of proliferation
Procedure: (§3) Several cancer cell lines were used for the in vivo or in vitro biological tests: • SNB75 is a human glioblastoma line derived from a primary culture, i.e. derived from a primary malignant cancer tumor. It forms part of the panel of 59 cancer lines referenced by the NCI. Its Cosmic reference number published by the Welcome Trust Sanger Institute is 905982. This line was supplied by a person (M.D. Ph.D of the department of “Radiation Oncology”, Stanford University Medical Center). It was cultured in Ham's F-12 and DMEM (1/1) supplemented with 10% fetal bovine serum. The experiments were performed with cells in the exponential growth phase. • Gli4 (or Gli4F11) and Gli7 are cultures of cancer strain cells derived from human glioblastomas (primary cultures). These lines are CD133^+, CD15^+ which are multipotent and tumorigenic in animals. They were established by J. P. Hugnot (INM INSERM U-1051 Eq. 4), and described in Guichet, P. O. et al, Glia 2013, 61(2), 225-239; • C6 is a rat glioblastoma line. It is referenced in the ATCC under the reference CCL-107. • MDAMB-435 is a melanoma line derived from a mammary melanoma. It forms part of the panel of 59 cancer lines referenced by the NCI. It is referenced at the ATCC under the reference HTB-129. It was cultured in Ham's F-12 and DMEM (1/1) supplemented with 10% fetal bovine serum. […]

[4] = tested on: GLi4; test: MTT antiproliferative test, Gli4; format: cell-based; settings: Homo sapiens, read-out: IC50, inhibition of proliferation
Procedure: as §3

[5] = tested on: melanoma line MDAMB-435; test: Boyden chamber migration test, MDAMB-435; format: cell-based, human; settings: for Ki: 24 hours, read-out: Inhibition constant Ki, migration
Procedure: The effects of compounds 3.48a, 4.2a and 5.6d on the migration of cancer cells (human glioblastoma line SNB75 or primary culture of human glioblastoma Gli4F1, on the one hand, and MDAMB 435 and A431 on the other hand), were determined by performing a standard migration test in a Boyden chamber (treatment of the cells for 24 hours).
For this test, the compounds were dissolved in vitro and used in culture in 0.3% of DMSO. The interior of the inserts was covered with the extracellular matrix protein studied (laminin-1, vitronectin or fibronectin). The cells pretreated at various concentrations and untreated (controls) were deposited in the inserts covered with said protein at a rate of 50 000 cells/500 μl/insert in a medium containing 0.1% of BSA (bovine serum albumin).
500 μl of medium containing 10% fetal calf serum were then placed in each well of a Companion plate so as to allow the formation of a chemotactic gradient across the porous membrane. After 24 hours of migration in the incubator at 37° C., the supernatent was removed and the inserts rinsed with PBS on each face. The cells were counted with a microscope (Zeiss Axiophot, magnification ×200). This gives a percentage of migration relative to the untreated cells.
Table 2 below gives, for compound 3.48a, the values for the inhibition constants (Ki) for the migration of a human GBM line (SNB75), of GBM stem cell lines (Gli4, Gli7) and of a breast cancer line MDAMB231, in a Boyden chamber, on various extracellular matrix protein supports. Tables 3 and 4 below give, for compounds 4.2a and 5.6d, the values of the inhibition constants (Ki) for the migration of a melanoma line (MDAMB-435) or of an epidermoid cancer line (A431), in a Boyden chamber, on various extracellular matrix protein supports. The inhibitory effect depends on the line and the stem cells used, but also on the extracellular matrix protein support used.

[6] = tested on: A431 line; test: MTT antiproliferative test, A431; format: cell-based, human; settings: Homo sapiens, A-431; A431; 72 hours, MTT; read-out: IC50, inhibition of proliferation
Procedure: as §1, §2

Q: How did the IC50 [1] turn out when `CC1(C)O[C@H]2[C@@H]([C@H]3COC(C)(C)O3)O[P@](=O)(c3ccccc3)[C@@H](OC(=O)c3ccccc3)[C@H]2O1` [Compound 4.2a, (SPRSRR)-3-benzoate-4-(2,2-dimethyl-[1,3]dioxolan-4-yl)-2,2-dimethyl-2-oxo-2-phenyl-tetrahydro-2λ^5-[1,2]oxaphosphinane] was run?
A: Its IC50 is > 100000 nM.

Q: And the IC50 [2]?
A: Its IC50 is > 100000 nM.

Q: What about the IC50 [3] of the same compound?
A: Its IC50 is 8510 nM.

Q: What about the IC50 [4] of the same compound?
A: The IC50 was 6810 nM.

Q: What about the IC50 ([5]; Homo sapiens, MDA-MB-435, on fibronectin or vitronectin, read-out: Concentration for a 50% decrease in migration of the cancer cells) of the same compound?
A: Its IC50 is 10 to 100 nM.

Q: What about the Ki ([5]; support Fibronectin) of the same compound?
A: The Ki was 33 nM.

Q: What about the Ki ([5]; support Laminin) of the same compound?
A: Its Ki is 34 nM.

Q: And the Ki ([5]; support Vitronectin)?
A: Its Ki is 61 nM.

Q: And the IC50 [6]?
A: The IC50 was 4350 nM.
